In PubChem BioAssay AID1259407 (Chemical Carcinogenesis Research Information System (CCRIS), 2018):
Active and inactive are the calls of the source. The rule behind the calls is not given here.

System: CCRIS mutagenicity, Ames/micronucleus/aberration tests
Assay: CCRIS mutagenicity studies

Nc1cc2c3ccccc3ccc2c2ccccc12
mutagenic call (Test System: AMES SALMONELLA TYPHIMURIUM, Strain/Indicator: TA98 (1,8-DNP6), Metabolic Activation: RAT LIVER, CYTOSOL, AROCLOR 1254, Method: STANDARD PLATE): inactive; negative
mutagenic call (Test System: AMES SALMONELLA TYPHIMURIUM, Strain/Indicator: TA98 (1,8-DNP6), Metabolic Activation: RAT LIVER, MICROSOMES, AROCLOR 1254, Method: STANDARD PLATE): active; positive
mutagenic call (Test System: AMES SALMONELLA TYPHIMURIUM, Strain/Indicator: TA98, Metabolic Activation: FERRET, LIVER, CYTOSOL, Method: STANDARD PLATE): inactive; negative
mutagenic call (Test System: AMES SALMONELLA TYPHIMURIUM, Strain/Indicator: TA98, Metabolic Activation: FERRET, LIVER, MICROSOMES, Method: STANDARD PLATE): inactive; negative
mutagenic call (Test System: AMES SALMONELLA TYPHIMURIUM, Strain/Indicator: TA98, Metabolic Activation: HAMSTER, LIVER, CYTOSOL, Method: STANDARD PLATE): inactive; negative
mutagenic call (Test System: AMES SALMONELLA TYPHIMURIUM, Strain/Indicator: TA98, Metabolic Activation: HAMSTER, LIVER, MICROSOMES, Method: STANDARD PLATE): active; positive
mutagenic call (Test System: AMES SALMONELLA TYPHIMURIUM, Strain/Indicator: TA98, Metabolic Activation: HUMAN, LIVER, CYTOSOL, Method: STANDARD PLATE): active; positive
mutagenic call (Test System: AMES SALMONELLA TYPHIMURIUM, Strain/Indicator: TA98, Metabolic Activation: NONE, Method: PREINCUBATION): active; positive
mutagenic call (Test System: AMES SALMONELLA TYPHIMURIUM, Strain/Indicator: TA98, Metabolic Activation: PIG, LIVER, CYTOSOL, Method: STANDARD PLATE): active; positive
mutagenic call (Test System: AMES SALMONELLA TYPHIMURIUM, Strain/Indicator: TA98, Metabolic Activation: PIG, LIVER, MICROSOMES, Method: STANDARD PLATE): inactive; negative
mutagenic call (Test System: AMES SALMONELLA TYPHIMURIUM, Strain/Indicator: TA98, Metabolic Activation: RAT LIVER, CYTOSOL, AROCLOR 1254, Method: STANDARD PLATE): active; positive
mutagenic call (Test System: AMES SALMONELLA TYPHIMURIUM, Strain/Indicator: TA98, Metabolic Activation: RAT LIVER, MICROSOMES, AROCLOR 1254, Method: STANDARD PLATE): active; positive
mutagenic call (Test System: AMES SALMONELLA TYPHIMURIUM, Strain/Indicator: TA98, Metabolic Activation: RAT, LIVER, CYTOSOL, AROCLOR 1254, Method: STANDARD PLATE): active; positive
mutagenic call (Test System: AMES SALMONELLA TYPHIMURIUM, Strain/Indicator: TA98, Metabolic Activation: RAT, LIVER, CYTOSOL, BENZO[A]PYRENE, Method: STANDARD PLATE): active; positive
mutagenic call (Test System: AMES SALMONELLA TYPHIMURIUM, Strain/Indicator: TA98, Metabolic Activation: RAT, LIVER, CYTOSOL, CLOFIBRATE, Method: STANDARD PLATE): active; positive
mutagenic call (Test System: AMES SALMONELLA TYPHIMURIUM, Strain/Indicator: TA98, Metabolic Activation: RAT, LIVER, CYTOSOL, DEXAMETHASONE, Method: STANDARD PLATE): active; positive
mutagenic call (Test System: AMES SALMONELLA TYPHIMURIUM, Strain/Indicator: TA98, Metabolic Activation: RAT, LIVER, CYTOSOL, ISONIAZID, Method: STANDARD PLATE): active; positive
mutagenic call (Test System: AMES SALMONELLA TYPHIMURIUM, Strain/Indicator: TA98, Metabolic Activation: RAT, LIVER, CYTOSOL, PHENOBARBITAL, Method: STANDARD PLATE): active; positive
mutagenic call (Test System: AMES SALMONELLA TYPHIMURIUM, Strain/Indicator: TA98, Metabolic Activation: RAT, LIVER, MICROSOMES, AROCLOR 1254, Method: STANDARD PLATE): active; positive
mutagenic call (Test System: AMES SALMONELLA TYPHIMURIUM, Strain/Indicator: TA98, Metabolic Activation: RAT, LIVER, MICROSOMES, BENZO[A]PYRENE, Method: STANDARD PLATE): active; positive
mutagenic call (Test System: AMES SALMONELLA TYPHIMURIUM, Strain/Indicator: TA98, Metabolic Activation: RAT, LIVER, MICROSOMES, CLOFIBRATE, Method: STANDARD PLATE): active; positive
mutagenic call (Test System: AMES SALMONELLA TYPHIMURIUM, Strain/Indicator: TA98, Metabolic Activation: RAT, LIVER, MICROSOMES, DEXAMETHASONE, Method: STANDARD PLATE): active; positive
mutagenic call (Test System: AMES SALMONELLA TYPHIMURIUM, Strain/Indicator: TA98, Metabolic Activation: RAT, LIVER, MICROSOMES, ISONIAZID, Method: STANDARD PLATE): active; positive
mutagenic call (Test System: AMES SALMONELLA TYPHIMURIUM, Strain/Indicator: TA98, Metabolic Activation: RAT, LIVER, MICROSOMES, PHENOBARBITAL, Method: STANDARD PLATE): active; positive
mutagenic call (Test System: AMES SALMONELLA TYPHIMURIUM, Strain/Indicator: TA98, Metabolic Activation: RAT, LIVER, MICROSOMES, Method: STANDARD PLATE): active; positive
mutagenic call (Test System: AMES SALMONELLA TYPHIMURIUM, Strain/Indicator: TA98, Metabolic Activation: RAT, LIVER, S-9, AROCLOR 1254, Method: PREINCUBATION): active; positive
mutagenic call (Test System: AMES SALMONELLA TYPHIMURIUM, Strain/Indicator: TA100, Metabolic Activation: NONE, Method: PREINCUBATION): active; positive
mutagenic call (Test System: AMES SALMONELLA TYPHIMURIUM, Strain/Indicator: TA100, Metabolic Activation: NONE, Method: STANDARD PLATE): inactive; negative
mutagenic call (Test System: AMES SALMONELLA TYPHIMURIUM, Strain/Indicator: TA100, Metabolic Activation: RAT, LIVER, MICROSOMES, 6-AMINOCHRYSENE, Method: STANDARD PLATE): inactive; negative
mutagenic call (Test System: AMES SALMONELLA TYPHIMURIUM, Strain/Indicator: TA100, Metabolic Activation: RAT, LIVER, MICROSOMES, AROCLOR 1254, Method: STANDARD PLATE): active; positive
mutagenic call (Test System: AMES SALMONELLA TYPHIMURIUM, Strain/Indicator: TA100, Metabolic Activation: RAT, LIVER, MICROSOMES, Method: STANDARD PLATE): active; positive
mutagenic call (Test System: AMES SALMONELLA TYPHIMURIUM, Strain/Indicator: TA100, Metabolic Activation: RAT, LIVER, S-9, AROCLOR 1254, Method: PREINCUBATION): active; positive
mutagenic call (Test System: AMES SALMONELLA TYPHIMURIUM, Strain/Indicator: TA100, Metabolic Activation: RAT, LIVER, S-9, AROCLOR 1254, Method: STANDARD PLATE): active; positive
mutagenic call (Test System: AMES SALMONELLA TYPHIMURIUM, Strain/Indicator: TA1535, Metabolic Activation: NONE, Method: STANDARD PLATE): inactive; negative
mutagenic call (Test System: AMES SALMONELLA TYPHIMURIUM, Strain/Indicator: TA1535, Metabolic Activation: RAT, LIVER, S-9, AROCLOR 1254, Method: STANDARD PLATE): inactive; negative
mutagenic call (Test System: AMES SALMONELLA TYPHIMURIUM, Strain/Indicator: TA1537, Metabolic Activation: NONE, Method: STANDARD PLATE): inactive; negative
mutagenic call (Test System: AMES SALMONELLA TYPHIMURIUM, Strain/Indicator: TA1538, Metabolic Activation: NONE, Method: STANDARD PLATE): inactive; negative
mutagenic call (Test System: CHINESE HAMSTER OVARY, Strain/Indicator: CHO-K1-BH4 (HGPRT)/6-THIOGUANINE, Metabolic Activation: NONE, Method: STANDARD PLATE): inactive; negative
mutagenic call (Test System: CHINESE HAMSTER OVARY, Strain/Indicator: CHO-K1-BH4 (HGPRT)/6-THIOGUANINE, Metabolic Activation: RAT, LIVER, S-9, AROCLOR 1254, Method: STANDARD PLATE): active; positive
mutagenic call (Test System: CHINESE HAMSTER OVARY, Strain/Indicator: CHO-UV5 (HGPRT)/6-THIOGUANINE, Metabolic Activation: NONE, Method: STANDARD PLATE): inactive; negative
mutagenic call (Test System: CHINESE HAMSTER OVARY, Strain/Indicator: CHO-UV5 (HGPRT)/6-THIOGUANINE, Metabolic Activation: RAT, LIVER, S-9, AROCLOR 1254, Method: STANDARD PLATE): active; positive
mutagenic call (Test System: UDS GUINEA PIG HEPATOCYTES, Strain/Indicator: THY INCORP, Metabolic Activation: NONE, Method: AUTORADIOGRAPHY): active; positive
mutagenic call (Test System: UDS HUMAN HEPATOCYTES, Strain/Indicator: THY INCORP, Metabolic Activation: NONE, Method: AUTORADIOGRAPHY): active; positive
mutagenic call (Test System: UDS MONKEY HEPATOCYTES, Strain/Indicator: THY INCORP, Metabolic Activation: NONE, Method: AUTORADIOGRAPHY): active; positive
mutagenic call (Test System: UDS RAT HEPATOCYTES, Strain/Indicator: THY INCORP, Metabolic Activation: AROCLOR 1254, Method: AUTORADIOGRAPHY): active; positive
mutagenic call (Test System: UDS RAT HEPATOCYTES, Strain/Indicator: THY INCORP, Metabolic Activation: NONE, Method: AUTORADIOGRAPHY): active; positive
